pIC50: −log10 of the molar value.

In series [1] the test system is Rattus norvegicus. Nature of the series: AUC (0 to 72 hrs) in male Sprague-Dawley rat at 50 mg/kg, po by LC-MS/MS method. The following applies: in vivo. The class given is ADME, organism-based. On the set-up: dose 50 mg/kg, time < 72 hr, route oral.
Series [2] is described as follows: Cmax in female Sprague-Dawley rat at 50 mg/kg, po by LC-MS/MS method. The class given is ADME, organism-based. On the set-up: dose 50 mg/kg, route oral. As to conditions: in vivo.
Series [3] can be described thus: Tmax in female Sprague-Dawley rat at 50 mg/kg, po by LC-MS/MS method. As to conditions: in vivo. It counts as ADME, organism-based.
The nature of series [4]: Potentiation of doxorubicin-induced antitumor activity against human KBv200 cells xenografted in Balb/c nude mouse assessed as tumor growth inhibition at 10 mg/kg, ip once daily for 12 days (reference value: 11.6%). The class given is functional. The following applies: 288 h, read-out: TGI.
The nature of series [5]: Tmax in male Sprague-Dawley rat at 50 mg/kg, po by LC-MS/MS method. The class given is ADME, organism-based. As to conditions: in vivo.
Series [6] is described as follows: Cytotoxicity against human KBv200 cells after 72 hrs by MTT assay. As to conditions: KBv200, 72 h. The class given is functional, cell-based. In general terms: Tetrazolium dyes change colour on reduction, which living cells bring about.
The subject of series [7] is Rattus norvegicus. The experiment in a line: AUC (0 to 72 hrs) in female Sprague-Dawley rat at 50 mg/kg, po by LC-MS/MS method. It counts as ADME, organism-based. On the set-up: time < 72 hr, dose 50 mg/kg, route oral. As to conditions: in vivo.
Series [8] concerns Homo sapiens. Nature of the series: AUC in healthy human at 30 mg/kg, iv by LC-MS/MS method. It counts as ADME, organism-based. As to conditions: in vivo.
Series [9] in a line: Half life in male Sprague-Dawley rat at 50 mg/kg, po by LC-MS/MS method. It counts as ADME, organism-based. As to conditions: in vivo.
Series [10] is described as follows: Terminal phase half life in healthy human at 30 mg/kg, iv by LC-MS/MS method. The class given is ADME, organism-based. The following applies: in vivo, read-out: beta t1/2 (converted).
Series [11] in a line: Primary phase half life in healthy human at 30 mg/kg, iv by LC-MS/MS method. As to conditions: in vivo, read-out: alphat1/2. It counts as ADME, organism-based.
Series [12] in a line: Half life in female Sprague-Dawley rat at 50 mg/kg, po by LC-MS/MS method. The following applies: in vivo. It counts as ADME, organism-based.
Series [13] in a line: Potentiation of epirubicin-induced antitumor activity against human KBv200 cells in xenograft model assessed as tumor growth inhibition at 10 mg/kg, ip (reference value: 29%). It counts as functional. As to conditions: read-out: TGI. (In xenograft studies the graft and the host belong to different species.)
Series [14] is described as follows: Cmax in male Sprague-Dawley rat at 50 mg/kg, po by LC-MS/MS method. The class given is ADME, organism-based. On the set-up: dose 50 mg/kg, route oral. The following applies: in vivo.

With `COc1ccc2cc1Oc1ccc(cc1)C[C@@H]1c3cc(c(OC)cc3CCN1C)Oc1c(OC)c(OC)c(Br)c3c1[C@H](C2)N(C)CC3`, the AUC came to 6116 µg/h/L in [1], 21827 µg/h/L in series [7] and 64 µg/h/L in series [8]. The Cmax – broadly, the peak of the concentration-time curve – in [2] came to 835 ng/mL; in [14] it was 607 ng/mL. Further, the Tmax (in general, the time from dosing to the highest level) in series [3] was found to be 4.67 h; in [5], 3.67 h. For the same compound, the figures for the inhibition in vivo at 10 mg/kg in series [4] and in series [13] were 39% and 48%, respectively. In series [6], the pIC50 (as a rule, the IC50 on a negative log10 scale, so that one unit is a factor of ten) is 5.70. Also, the half-life in series [9] is 8.67 h; in series [10] it was 52 h; in series [11], 0.5 h; in [12], 18.2 h.

These data come from ChEMBL document CHEMBL4190243, “Natural alkaloids as P-gp inhibitors for multidrug resistance reversal in cancer” (Eur J Med Chem, 2017).
